Reference: PubChem BioAssay (NCI)
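Briefly, cells in 96-well plates were exposed to five compound concentrations for 48 h, and endpoints were estimated by linear interpolation. GI50 = concentration required for 50% inhibition of growth. The concentration for full growth arrest is given as TGI.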

Columns and labels:
Assay in all cases: NCI-60 cell line screen, 48 h
BT-549 breast = test system: BT-549 breast
NCI/ADR-RES ovarian = test system: NCI/ADR-RES ovarian
MDA-MB-435 = test system: MDA-MB-435
NCI-H226 lung = test system: NCI-H226 lung
M14 melanoma = test system: M14 melanoma
COLO 205 colon = test system: COLO 205 colon
PC-3 prostate = test system: PC-3 prostate
TK-10 renal = test system: TK-10 renal
786-0 renal = test system: 786-0 renal
IGROV1 ovarian = test system: IGROV1 ovarian
SK-MEL-28 melanoma = test system: SK-MEL-28 melanoma
OVCAR-8 ovarian = test system: OVCAR-8 ovarian
KM12 colon = test system: KM12 colon
RXF 393 renal = test system: RXF 393 renal
HCT-116 colon = test system: HCT-116 colon
CCRF-CEM leukemia = test system: CCRF-CEM leukemia
UACC-257 melanoma = test system: UACC-257 melanoma
SNB-75 CNS = test system: SNB-75 CNS
NCI-H460 lung = test system: NCI-H460 lung
HS 578T breast = test system: HS 578T breast
SK-OV-3 ovarian = test system: SK-OV-3 ovarian
EKVX NSCLC = test system: EKVX NSCLC
A498 renal = test system: A498 renal
NCI-H522 lung = test system: NCI-H522 lung
T-47D breast = test system: T-47D breast
SNB-19 CNS = test system: SNB-19 CNS
MDA-MB-231 breast = test system: MDA-MB-231 breast
NCI-H23 lung = test system: NCI-H23 lung
DU-145 prostate = test system: DU-145 prostate
OVCAR-4 ovarian = test system: OVCAR-4 ovarian
HCT-15 colon = test system: HCT-15 colon
HOP-62 NSCLC = test system: HOP-62 NSCLC
SN12C renal = test system: SN12C renal
OVCAR-3 ovarian = test system: OVCAR-3 ovarian
RPMI-8226 leukemia = test system: RPMI-8226 leukemia
OVCAR-5 ovarian = test system: OVCAR-5 ovarian
HCC-2998 colon = test system: HCC-2998 colon
U251 CNS = test system: U251 CNS
SF-539 CNS = test system: SF-539 CNS
A549 NSCLC = test system: A549 NSCLC
UACC-62 melanoma = test system: UACC-62 melanoma
SW-620 colon = test system: SW-620 colon
HT29 colon = test system: HT29 colon
SK-MEL-5 melanoma = test system: SK-MEL-5 melanoma
ACHN renal = test system: ACHN renal
SF-268 CNS = test system: SF-268 CNS
CAKI-1 renal = test system: CAKI-1 renal
SK-MEL-2 melanoma = test system: SK-MEL-2 melanoma
SF-295 CNS = test system: SF-295 CNS
UO-31 renal = test system: UO-31 renal
LOX IMVI melanoma = test system: LOX IMVI melanoma
MALME-3M melanoma = test system: MALME-3M melanoma
HOP-92 NSCLC = test system: HOP-92 NSCLC
MOLT-4 leukemia = test system: MOLT-4 leukemia
SR leukemia = test system: SR leukemia
MCF7 breast = test system: MCF7 breast
K-562 leukemia = test system: K-562 leukemia

With `Nc1ccc(C(=O)NN2C(=O)[C@H](Cl)C2c2ccc(Cl)cc2)cc1` (some centres not stated) the GI50 (BT-549 breast) was 1.95 µM, the TGI (BT-549 breast) was 4.9 µM and the TGI (NCI/ADR-RES ovarian) was 3.83 µM. The TGI (MDA-MB-435) was 4.16 µM, the TGI (NCI-H226 lung) was 2.65 µM and the TGI (M14 melanoma) was 3.11 µM. For the same compound, the TGI (COLO 205 colon) was 4.14 µM, the TGI (PC-3 prostate) was 3.2 µM and the TGI (TK-10 renal) was 2.57 µM. For the same compound, the TGI (786-0 renal) was 2.6 µM, the TGI (IGROV1 ovarian) was 4.54 µM and the TGI (SK-MEL-28 melanoma) was 1.8 µM. The TGI (OVCAR-8 ovarian) was 3.68 µM, the TGI (KM12 colon) was 2.99 µM and the TGI (RXF 393 renal) was > 100 µM. For the same compound, the TGI (HCT-116 colon) was 0.476 µM, the GI50 (CCRF-CEM leukemia) was 0.31 µM and the TGI (CCRF-CEM leukemia) was 1.41 µM. For the same compound, the TGI (UACC-257 melanoma) was 3.63 µM, the TGI (SNB-75 CNS) was 0.797 µM and the TGI (NCI-H460 lung) was > 100 µM. For the same compound, the TGI (HS 578T breast) was 4.02 µM, the TGI (SK-OV-3 ovarian) was 4.27 µM and the TGI (EKVX NSCLC) was 12.8 µM. For the same compound, the GI50 (A498 renal) was 1.62 µM, the TGI (A498 renal) was 3.21 µM and the TGI (NCI-H522 lung) was > 100 µM. It also gave a TGI (T-47D breast) of 3.88 µM, a TGI (SNB-19 CNS) of 3.69 µM and a TGI (MDA-MB-231 breast) of 3.55 µM. For the same compound, the TGI (NCI-H23 lung) was 2.34 µM, the TGI (DU-145 prostate) was 4.06 µM and the TGI (OVCAR-4 ovarian) was > 100 µM. It also gave a TGI (HCT-15 colon) of 2.79 µM, a TGI (HOP-62 NSCLC) of 3.12 µM and a TGI (SN12C renal) of 2.83 µM. The TGI (OVCAR-3 ovarian) was 2.55 µM, the TGI (RPMI-8226 leukemia) was 5.32 µM and the TGI (OVCAR-5 ovarian) was 8.23 µM. It also gave a TGI (HCC-2998 colon) of 3.01 µM, a TGI (U251 CNS) of 2.26 µM and a TGI (SF-539 CNS) of 3.6 µM. It also gave a TGI (A549 NSCLC) of 8.49 µM, a TGI (UACC-62 melanoma) of 3.69 µM and a TGI (SW-620 colon) of 4.96 µM. The TGI (HT29 colon) was 0.61 µM, the TGI (SK-MEL-5 melanoma) was 4.27 µM and the TGI (ACHN renal) was 2.48 µM. For the same compound, the TGI (SF-268 CNS) was 1.92 µM, the TGI (CAKI-1 renal) was 2.94 µM and the TGI (SK-MEL-2 melanoma) was 4.37 µM. For the same compound, the TGI (SF-295 CNS) was 9.31 µM, the TGI (UO-31 renal) was 4.35 µM and the GI50 (LOX IMVI melanoma) was 0.113 µM. The TGI (LOX IMVI melanoma) was 0.233 µM and the TGI (MALME-3M melanoma) was 4.13 µM.

`C[CH2][Pb]([CH2]C)([CH2]C)[O]C(=O)COc1ccccc1` showed a GI50 (BT-549 breast) of 1.78 µM, a TGI (BT-549 breast) of 6.4 µM and a GI50 (NCI/ADR-RES ovarian) of 1.97 µM. It also gave a TGI (NCI/ADR-RES ovarian) of 9.24 µM, a GI50 (MDA-MB-435) of 0.214 µM and a TGI (MDA-MB-435) of 0.502 µM. It also gave a GI50 (NCI-H226 lung) of 1.83 µM, a TGI (NCI-H226 lung) of 6.04 µM and a GI50 (M14 melanoma) of 1.39 µM. The TGI (M14 melanoma) was 6.67 µM, the GI50 (COLO 205 colon) was 1.96 µM and the TGI (COLO 205 colon) was 4.51 µM. The GI50 (TK-10 renal) was 1.63 µM, the TGI (TK-10 renal) was 5.21 µM and the GI50 (786-0 renal) was 2.13 µM. The TGI (786-0 renal) was 5.72 µM, the GI50 (IGROV1 ovarian) was 1.64 µM and the TGI (IGROV1 ovarian) was 6.52 µM. The GI50 (SK-MEL-28 melanoma) was 0.784 µM, the TGI (SK-MEL-28 melanoma) was 11 µM and the GI50 (OVCAR-8 ovarian) was 1.76 µM. It also gave a TGI (OVCAR-8 ovarian) of 5.68 µM, a GI50 (KM12 colon) of 1.51 µM and a TGI (KM12 colon) of 5.84 µM. For the same compound, the GI50 (RXF 393 renal) was 1.05 µM, the TGI (RXF 393 renal) was 3.26 µM and the GI50 (HCT-116 colon) was 1.44 µM. It also gave a TGI (HCT-116 colon) of 2.9 µM, a GI50 (CCRF-CEM leukemia) of 1.23 µM and a TGI (CCRF-CEM leukemia) of 4.86 µM. For the same compound, the GI50 (UACC-257 melanoma) was 0.557 µM, the TGI (UACC-257 melanoma) was 4.75 µM and the GI50 (SNB-75 CNS) was 1.24 µM. It also gave a TGI (SNB-75 CNS) of 11.3 µM, a GI50 (NCI-H460 lung) of 2.21 µM and a TGI (NCI-H460 lung) of 5.94 µM. It also gave a GI50 (HS 578T breast) of 1.53 µM, a TGI (HS 578T breast) of 5.2 µM and a GI50 (SK-OV-3 ovarian) of 2.08 µM. The TGI (SK-OV-3 ovarian) was 6.1 µM, the GI50 (A498 renal) was 1.75 µM and the TGI (A498 renal) was 6.61 µM. The GI50 (NCI-H522 lung) was 0.562 µM, the TGI (NCI-H522 lung) was 2.11 µM and the GI50 (T-47D breast) was 0.757 µM. For the same compound, the TGI (T-47D breast) was 8.82 µM, the GI50 (HOP-92 NSCLC) was 0.39 µM and the TGI (HOP-92 NSCLC) was 4.1 µM. It also gave a GI50 (SNB-19 CNS) of 2.36 µM, a TGI (SNB-19 CNS) of 11.3 µM and a GI50 (MDA-MB-231 breast) of 1.63 µM. The TGI (MDA-MB-231 breast) was 4.84 µM, the GI50 (DU-145 prostate) was 2.43 µM and the TGI (DU-145 prostate) was 10.7 µM. It also gave a GI50 (OVCAR-4 ovarian) of 0.949 µM, a TGI (OVCAR-4 ovarian) of 4.96 µM and a GI50 (HCT-15 colon) of 1.98 µM. The TGI (HCT-15 colon) was 11.6 µM, the GI50 (MOLT-4 leukemia) was 1.95 µM and the TGI (MOLT-4 leukemia) was 4.63 µM. It also gave a GI50 (HOP-62 NSCLC) of 1.64 µM, a TGI (HOP-62 NSCLC) of 3.76 µM and a GI50 (SN12C renal) of 2.39 µM. The TGI (SN12C renal) was 9.61 µM, the GI50 (OVCAR-3 ovarian) was 1.7 µM and the TGI (OVCAR-3 ovarian) was 5.27 µM. For the same compound, the GI50 (SR leukemia) was 0.595 µM, the TGI (SR leukemia) was 3.88 µM and the GI50 (RPMI-8226 leukemia) was 1.03 µM. The TGI (RPMI-8226 leukemia) was 3.12 µM, the GI50 (OVCAR-5 ovarian) was 1.74 µM and the TGI (OVCAR-5 ovarian) was 4.61 µM. The GI50 (HCC-2998 colon) was 1.65 µM, the TGI (HCC-2998 colon) was 3.85 µM and the GI50 (U251 CNS) was 1.74 µM. It also gave a TGI (U251 CNS) of 3.89 µM, a GI50 (SF-539 CNS) of 1.81 µM and a TGI (SF-539 CNS) of 4.63 µM. It also gave a GI50 (A549 NSCLC) of 1.82 µM, a TGI (A549 NSCLC) of 5.65 µM and a GI50 (SW-620 colon) of 0.641 µM. It also gave a TGI (SW-620 colon) of 2.47 µM, a GI50 (HT29 colon) of 1.74 µM and a TGI (HT29 colon) of 4.61 µM. For the same compound, the GI50 (SK-MEL-5 melanoma) was 1.19 µM, the TGI (SK-MEL-5 melanoma) was 2.56 µM and the GI50 (ACHN renal) was 2.51 µM. It also gave a TGI (ACHN renal) of 11.3 µM, a GI50 (SF-268 CNS) of 1.67 µM and a TGI (SF-268 CNS) of 4.54 µM. For the same compound, the GI50 (MCF7 breast) was 1.77 µM, the TGI (MCF7 breast) was 9.34 µM and the GI50 (CAKI-1 renal) was 1.95 µM. It also gave a TGI (CAKI-1 renal) of 6.18 µM, a GI50 (SK-MEL-2 melanoma) of 0.382 µM and a TGI (SK-MEL-2 melanoma) of 1.73 µM. It also gave a GI50 (SF-295 CNS) of 1.51 µM, a TGI (SF-295 CNS) of 3.13 µM and a GI50 (UO-31 renal) of 1.05 µM. For the same compound, the TGI (UO-31 renal) was 3.7 µM, the GI50 (K-562 leukemia) was 1.47 µM and the TGI (K-562 leukemia) was 6.64 µM. For the same compound, the GI50 (LOX IMVI melanoma) was 1.4 µM, the TGI (LOX IMVI melanoma) was 3.22 µM and the GI50 (MALME-3M melanoma) was 0.441 µM. The TGI (MALME-3M melanoma) was 7.11 µM.
